Laboratory results reported in ChEMBL document CHEMBL2157966, “Elevation of cellular O-GlcNAcylation level by a potent and selective O-GlcNAcase inhibitor based on tetrahydroimidazopyridine scaffold” (Bioorg Med Chem Lett, 2012).
Active and inactive are the calls of the source. No cut-off for these calls is given here.

Legend:
[1] = target: T1, Protein O-GlcNAcase (Homo sapiens) (UniProt O60502); assay: Inhibition of human OGA at 100 uM
T1 sequence (whole entry): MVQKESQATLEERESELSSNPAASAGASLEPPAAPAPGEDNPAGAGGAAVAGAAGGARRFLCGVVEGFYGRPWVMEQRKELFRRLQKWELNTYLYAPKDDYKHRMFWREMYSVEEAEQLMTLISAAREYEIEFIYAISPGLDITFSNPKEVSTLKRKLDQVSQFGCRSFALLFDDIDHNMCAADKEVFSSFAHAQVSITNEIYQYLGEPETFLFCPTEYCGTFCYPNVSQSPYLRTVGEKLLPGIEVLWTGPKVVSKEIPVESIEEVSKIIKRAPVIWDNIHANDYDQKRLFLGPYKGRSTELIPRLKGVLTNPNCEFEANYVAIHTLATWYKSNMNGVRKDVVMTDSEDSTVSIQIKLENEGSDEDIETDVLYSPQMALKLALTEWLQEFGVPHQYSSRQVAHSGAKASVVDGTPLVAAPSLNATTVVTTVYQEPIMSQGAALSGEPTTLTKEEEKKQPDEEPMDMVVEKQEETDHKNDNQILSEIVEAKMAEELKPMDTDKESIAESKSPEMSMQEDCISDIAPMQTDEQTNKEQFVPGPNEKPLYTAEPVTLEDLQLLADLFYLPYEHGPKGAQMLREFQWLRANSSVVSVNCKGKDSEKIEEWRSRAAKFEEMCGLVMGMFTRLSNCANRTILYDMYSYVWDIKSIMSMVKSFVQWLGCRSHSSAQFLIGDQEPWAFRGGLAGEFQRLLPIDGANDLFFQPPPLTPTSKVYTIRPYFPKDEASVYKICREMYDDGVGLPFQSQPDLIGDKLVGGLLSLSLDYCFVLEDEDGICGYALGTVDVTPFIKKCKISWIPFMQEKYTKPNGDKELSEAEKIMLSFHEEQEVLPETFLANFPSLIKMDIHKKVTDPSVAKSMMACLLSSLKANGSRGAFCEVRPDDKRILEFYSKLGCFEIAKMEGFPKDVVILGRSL

[2] = target: T2, Beta-hexosaminidase subunit alpha (Homo sapiens, UniProt P06865); assay: Inhibition of human Hex A using 4-MU-GlcNAc as substrate after 10 mins by Lineweaver Burk plot analysis
T2 sequence (P06865 whole entry): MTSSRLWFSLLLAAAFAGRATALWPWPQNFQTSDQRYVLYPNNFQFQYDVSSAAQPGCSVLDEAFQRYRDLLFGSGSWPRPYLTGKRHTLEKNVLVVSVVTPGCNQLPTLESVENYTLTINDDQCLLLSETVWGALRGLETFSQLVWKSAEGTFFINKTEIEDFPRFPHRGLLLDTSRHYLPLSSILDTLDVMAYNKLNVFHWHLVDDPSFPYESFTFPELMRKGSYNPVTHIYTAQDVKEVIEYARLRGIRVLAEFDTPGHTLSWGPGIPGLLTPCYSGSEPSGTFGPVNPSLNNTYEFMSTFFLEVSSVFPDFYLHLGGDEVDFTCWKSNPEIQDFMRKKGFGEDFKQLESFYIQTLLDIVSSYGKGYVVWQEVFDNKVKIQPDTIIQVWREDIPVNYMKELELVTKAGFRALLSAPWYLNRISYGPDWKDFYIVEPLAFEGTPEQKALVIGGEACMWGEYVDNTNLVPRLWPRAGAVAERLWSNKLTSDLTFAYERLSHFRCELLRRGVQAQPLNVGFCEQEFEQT

[3] = target: T3, Protein O-GlcNAcase (Homo sapiens, UniProt O60502); assay: Competitive inhibition of human OGA using 4-MU-GlcNAc as substrate after 10 mins by Lineweaver Burk plot analysis
T3 sequence (O60502 whole entry): T1 sequence (whole entry)

[4] = target: T1, Protein O-GlcNAcase (Homo sapiens); assay: Inhibition of OGA in human SH-SY5Y cells assessed as increase in protein O-GlcNAcylation level at 10 uM after 24 hrs by Western blot analysis; format: cell-based
[5] = target: T1, Protein O-GlcNAcase (Homo sapiens); assay: Inhibition of OGA in human SH-SY5Y cells assessed as increase in protein O-GlcNAcylation level after 24 hrs by Western blot analysis; format: cell-based

Compound | inhibition [1] [%] | other results
O=C(CCc1cn2c(n1)[C@H](O)[C@@H](O)[C@H](O)[C@H]2CO)Nc1ccccc1 | 17.1 | 
CC(C)(CCc1cn2c(n1)[C@H](O)[C@@H](O)[C@H](O)[C@H]2CO)C(=O)Nc1ccccc1 | 2.2 | 
OC[C@@H]1[C@@H](O)[C@H](O)[C@@H](O)c2nc(CCc3ccc(C4CCCCC4)cc3)cn21 | 56.6 | 
OC[C@@H]1[C@@H](O)[C@H](O)[C@@H](O)c2nc(CCc3ccc(F)cc3)cn21 | 26.1 | 
COc1ccc(CCc2cn3c(n2)[C@H](O)[C@@H](O)[C@H](O)[C@H]3CO)cc1 | 54.1 | 
OC[C@@H]1[C@@H](O)[C@H](O)[C@@H](O)c2nccn21 | 6.2 | 
OC[C@@H]1[C@@H](O)[C@H](O)[C@@H](O)c2nc(CCc3ccc(-c4ccccc4)cc3)cn21 | 84.8 | Ki [2]: 163 µM; Ki [3]: 5.9 µM; inhibition [4]: Active; inhibition [5]: Dose-dependent effect

Now from value to compound, other results behind:

inhibition [1] [%] | Compound | other results
6.8 | OC[C@@H]1[C@@H](O)[C@H](O)[C@@H](O)c2nc(CCc3ccccc3)cn21 | 
28.3 | Cc1ccc(CCc2cn3c(n2)[C@H](O)[C@@H](O)[C@H](O)[C@H]3CO)cc1 | 
15.3 | CCCCCCCCc1cn2c(n1)[C@H](O)[C@@H](O)[C@H](O)[C@H]2CO | 
0.4 | CC(C)(C)CCc1cn2c(n1)[C@H](O)[C@@H](O)[C@H](O)[C@H]2CO | 
